Assay: xn = mol fraction of the nth substance listed
Conditions: Fluid (supercritical or subcritical phases), Buoyancy - hydrostatic balance with magnetic suspension - one sinker

N#N [nitrogen] + O=C=O
mass density [kg/m3]
Conditions | x1 = 0.95 | x1 = 0.99
298.11 K, 30854 kPa | 318.784 | –
298.15 K, 30889 kPa | – | 306.308
298.18 K, 10974 kPa | 128.536 | –
298.18 K, 26965 kPa | – | 276.485
298.18 K, 28960 kPa | 304.08 | 291.991
298.19 K, 10975 kPa | – | 124.2
298.19 K, 12974 kPa | 151.108 | –
298.19 K, 12977 kPa | – | 145.801
298.19 K, 14973 kPa | 173.056 | –
298.19 K, 14975 kPa | – | 166.746
298.19 K, 16968 kPa | 194.247 | –
298.19 K, 16973 kPa | – | 186.99
298.19 K, 18971 kPa | 214.733 | 206.482
298.19 K, 20971 kPa | – | 225.196
298.19 K, 20972 kPa | 234.34 | –
298.19 K, 22968 kPa | 253.055 | –
298.19 K, 22969 kPa | – | 243.092
298.19 K, 24966 kPa | 270.906 | –
298.19 K, 24967 kPa | – | 260.186
298.19 K, 26964 kPa | 287.919 | –
323.18 K, 10979 kPa | 116.684 | –
323.18 K, 14973 kPa | 156.725 | –
323.18 K, 28962 kPa | – | 266.975
323.18 K, 30957 kPa | 291.768 | 280.954
323.19 K, 12977 kPa | 136.963 | –
323.19 K, 14974 kPa | – | 151.425
323.19 K, 20974 kPa | 212.443 | –
323.19 K, 22968 kPa | 229.628 | –
323.19 K, 24967 kPa | 246.174 | –
323.19 K, 24968 kPa | – | 237.145
323.19 K, 26966 kPa | – | 252.374
323.19 K, 28961 kPa | 277.225 | –
323.2 K, 12978 kPa | – | 132.477
323.2 K, 16971 kPa | 175.903 | –
323.2 K, 16973 kPa | – | 169.822
323.2 K, 18972 kPa | 194.494 | –
323.2 K, 18975 kPa | – | 187.629
323.2 K, 20974 kPa | – | 204.784
323.2 K, 22971 kPa | – | 221.285
323.2 K, 26964 kPa | 262.031 | –
323.21 K, 10980 kPa | – | 112.998
348.15 K, 14974 kPa | 143.613 | –
348.16 K, 12976 kPa | 125.56 | –
348.16 K, 26965 kPa | – | 232.594
348.16 K, 28963 kPa | – | 246.335
348.17 K, 10975 kPa | 107.02 | 103.828
348.18 K, 12974 kPa | – | 121.664
348.18 K, 20972 kPa | – | 188.207
348.18 K, 24966 kPa | – | 218.313
348.18 K, 30959 kPa | – | 259.551
348.19 K, 16972 kPa | 161.157 | –
348.19 K, 18968 kPa | – | 172.299
348.19 K, 30958 kPa | 268.893 | –
348.2 K, 14978 kPa | – | 139.081
348.2 K, 22973 kPa | – | 203.544
348.2 K, 26965 kPa | 240.883 | –
348.21 K, 16969 kPa | – | 155.902
348.21 K, 22970 kPa | 210.667 | –
348.21 K, 24968 kPa | 226.054 | –
348.22 K, 18976 kPa | 178.236 | –
348.23 K, 20969 kPa | 194.689 | –
348.24 K, 28961 kPa | 255.123 | –
373.11 K, 14975 kPa | 132.811 | –
373.14 K, 10975 kPa | 99.052 | –
373.14 K, 10978 kPa | – | 96.257
373.14 K, 24968 kPa | – | 202.615
373.14 K, 26966 kPa | – | 216.025
373.16 K, 20970 kPa | 180.142 | –
373.16 K, 28962 kPa | – | 228.969
373.17 K, 12975 kPa | 116.113 | –
373.17 K, 12978 kPa | – | 112.737
373.17 K, 30957 kPa | 249.734 | –
373.18 K, 14973 kPa | – | 128.781
373.18 K, 16969 kPa | 148.99 | –
373.19 K, 18968 kPa | 164.767 | –
373.19 K, 22970 kPa | 194.991 | –
373.19 K, 24968 kPa | 209.378 | –
373.19 K, 26966 kPa | 223.295 | –
373.19 K, 30958 kPa | – | 241.48
373.2 K, 16976 kPa | – | 144.455
373.2 K, 18972 kPa | – | 159.653
373.2 K, 22969 kPa | – | 188.731
373.2 K, 28961 kPa | 236.723 | –
373.21 K, 20974 kPa | – | 174.438
398.12 K, 10979 kPa | 92.339 | –
398.15 K, 16976 kPa | – | 134.736
398.17 K, 10981 kPa | – | 89.797
398.17 K, 26965 kPa | – | 201.89
398.17 K, 30957 kPa | – | 226.029
398.17 K, 30958 kPa | 233.41 | –
398.18 K, 28962 kPa | 221.089 | –
398.18 K, 28963 kPa | – | 214.146
398.19 K, 14974 kPa | – | 120.089
398.19 K, 20968 kPa | – | 162.734
398.2 K, 12973 kPa | 108.135 | –
398.2 K, 14975 kPa | 123.655 | –
398.2 K, 18973 kPa | – | 148.923
398.2 K, 22966 kPa | – | 176.162
398.2 K, 24970 kPa | – | 189.239
398.21 K, 18973 kPa | 153.504 | –
398.21 K, 22970 kPa | 181.754 | –
398.21 K, 24969 kPa | 195.274 | –
398.21 K, 26967 kPa | 208.381 | –
398.22 K, 12974 kPa | – | 105.084
398.22 K, 20969 kPa | 167.809 | –
398.23 K, 16974 kPa | 138.767 | –
423.11 K, 14972 kPa | – | 112.628
423.13 K, 24967 kPa | 183.194 | –
423.13 K, 26965 kPa | 195.591 | –
423.13 K, 28962 kPa | 207.636 | –
423.13 K, 30956 kPa | 219.326 | –
423.14 K, 22965 kPa | 170.413 | –
423.16 K, 16970 kPa | – | 126.322
423.16 K, 18970 kPa | 143.837 | –
423.16 K, 20971 kPa | 157.318 | –
423.17 K, 12979 kPa | – | 98.597
423.17 K, 18968 kPa | – | 139.677
423.18 K, 10978 kPa | 86.517 | –
423.18 K, 10979 kPa | – | 84.203
423.18 K, 12971 kPa | 101.311 | –
423.18 K, 14973 kPa | 115.841 | –
423.18 K, 16967 kPa | 129.977 | –
423.18 K, 20972 kPa | – | 152.731
423.18 K, 30957 kPa | – | 212.642
423.19 K, 22973 kPa | – | 165.419
423.21 K, 24968 kPa | – | 177.709
423.21 K, 28961 kPa | – | 201.322
423.22 K, 26966 kPa | – | 189.691

From the NIST ThermoML archive (doi:10.1016/j.jct.2015.07.014)
